Among the data in BindingDB's records for doi:10.1021/jm00403a015 (Washington State University, 1988) are Ki values, retold here.

The assay deals with Cytidine deaminase (Mus musculus) (UniProt P56389). The assay is described as follows: Inhibition of cytidine deaminase enzyme obtained from mouse kidney.
Chain of Cytidine deaminase (Mus musculus) (P56389 whole entry, looked up): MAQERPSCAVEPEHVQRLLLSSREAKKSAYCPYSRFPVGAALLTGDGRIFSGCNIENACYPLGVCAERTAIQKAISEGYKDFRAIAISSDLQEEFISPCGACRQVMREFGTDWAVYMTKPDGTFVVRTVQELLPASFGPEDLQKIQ

`[O-][S+]1C=CN(C2O[C@H](CO)[C@@H](O)[C@H]2O)C(O)=C1` (stereo partly specified) yielded a Ki of 330 µM.
